# Measurements published in patent US11046699B2, “Pyrazolo-pyrimidin-amino-cycloalkyl compounds and their therapeutic uses” (RAPT THERAPEUTICS, INC., priority 2018, dated 2021).
# Target: GCN2 (Homo sapiens, UniProt Q9P2K8)
# Experiment: GCN2 enzymatic endpoint assay: phosphorylation of GFP-eIF2α measured by TR-FRET (Lanthascreen)
# Assay type: biochemical
# Conditions: GCN2 biochemical IC50; 4 nM GCN2, 2 μM ATP, 80 nM GFP-eIF2α, 90 min RT; read-out: GCN2 activity
# Summary of the method: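 Reaction started with 2 μM ATP and 80 nM GFP-labelled eIF2α substrate at room temperature, stopped with EDTA after 90 minutes. Phospho-eIF2α detected by terbium-labelled antibody TR-FRET; activity taken as 520 nm (fluorescein) to 495 nm (terbium) emission ratio.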
# GCN2, sequence (Q9P2K8 whole entry): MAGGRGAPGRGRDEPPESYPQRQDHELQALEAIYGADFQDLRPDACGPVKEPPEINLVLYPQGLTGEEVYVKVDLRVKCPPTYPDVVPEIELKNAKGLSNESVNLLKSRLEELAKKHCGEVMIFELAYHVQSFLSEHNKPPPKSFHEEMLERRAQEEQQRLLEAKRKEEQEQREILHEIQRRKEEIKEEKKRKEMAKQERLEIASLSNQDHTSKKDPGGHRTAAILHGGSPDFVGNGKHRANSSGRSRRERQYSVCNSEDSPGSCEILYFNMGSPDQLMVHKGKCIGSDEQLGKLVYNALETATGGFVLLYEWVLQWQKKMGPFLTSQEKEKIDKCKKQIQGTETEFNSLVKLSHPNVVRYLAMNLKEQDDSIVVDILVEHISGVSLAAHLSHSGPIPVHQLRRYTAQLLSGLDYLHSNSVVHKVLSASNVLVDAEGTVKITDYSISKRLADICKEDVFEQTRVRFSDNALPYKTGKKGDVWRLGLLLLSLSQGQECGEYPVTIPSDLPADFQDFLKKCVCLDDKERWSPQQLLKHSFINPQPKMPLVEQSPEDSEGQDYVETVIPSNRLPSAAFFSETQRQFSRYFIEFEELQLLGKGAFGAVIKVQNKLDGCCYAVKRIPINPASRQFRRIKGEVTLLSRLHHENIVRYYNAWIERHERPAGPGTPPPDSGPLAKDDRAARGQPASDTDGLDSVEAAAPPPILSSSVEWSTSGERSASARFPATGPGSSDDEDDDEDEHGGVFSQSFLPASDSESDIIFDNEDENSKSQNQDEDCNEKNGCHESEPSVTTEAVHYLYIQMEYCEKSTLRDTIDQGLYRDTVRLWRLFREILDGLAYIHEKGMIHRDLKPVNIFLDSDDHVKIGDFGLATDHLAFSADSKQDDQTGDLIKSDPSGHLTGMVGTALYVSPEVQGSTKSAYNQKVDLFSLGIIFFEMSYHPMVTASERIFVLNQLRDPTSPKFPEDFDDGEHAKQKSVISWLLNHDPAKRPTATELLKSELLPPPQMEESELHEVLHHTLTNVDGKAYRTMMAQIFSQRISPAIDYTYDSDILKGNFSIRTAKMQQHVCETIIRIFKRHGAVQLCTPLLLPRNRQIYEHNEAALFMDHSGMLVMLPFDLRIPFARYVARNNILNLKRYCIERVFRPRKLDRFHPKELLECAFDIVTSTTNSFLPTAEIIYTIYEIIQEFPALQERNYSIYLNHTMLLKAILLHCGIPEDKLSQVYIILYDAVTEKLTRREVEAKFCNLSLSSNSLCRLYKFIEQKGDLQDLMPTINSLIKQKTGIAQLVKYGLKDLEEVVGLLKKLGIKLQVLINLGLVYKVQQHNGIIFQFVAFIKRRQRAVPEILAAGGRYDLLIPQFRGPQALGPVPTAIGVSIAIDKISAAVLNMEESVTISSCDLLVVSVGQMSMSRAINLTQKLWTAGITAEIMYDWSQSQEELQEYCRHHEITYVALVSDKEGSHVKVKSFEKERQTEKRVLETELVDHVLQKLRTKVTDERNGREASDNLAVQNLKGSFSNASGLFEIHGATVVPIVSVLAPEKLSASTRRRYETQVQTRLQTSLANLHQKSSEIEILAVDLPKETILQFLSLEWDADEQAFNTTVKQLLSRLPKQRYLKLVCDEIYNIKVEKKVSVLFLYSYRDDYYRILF
row,IC50,Compound
1,25 to 200 nM,"CNC(=O)[C@]1(C)CC[C@@H](Nc2ncc3c(Br)nn(-c4ccc5ncn(C)c(=O)c5c4)c3n2)C1 [Example 72, (1R,3R)-3-((3-bromo-1-(3-methyl-4-oxo-3,4-dihydroquinazolin-6-yl)-1H-pyrazolo[3,4-d]pyrimidin-6-yl)amino)-N,1-dimethylcyclopentane-1-carboxamide]"
2,25 to 200 nM,"Cc1nnc(-c2ccc(-n3nc(Br)c4cnc(N[C@@H]5CC[C@@](C)(O)C5)nc43)cc2CCC#N)s1 [Example 76, 3-(5-(3-bromo-6-(((1R,3R)-3-hydroxy-3-methylcyclopentyl)amino)-1H-pyrazolo[3,4-d]pyrimidin-1-yl)-2-(5-methyl-1,3,4-thiadiazol-2-yl)phenyl)propanenitrile]"

# Same assay, conditions: tested as described in Example 77; compound and/or hydrochloride, dihydrochloride or trifluoroacetic acid salt; read-out: IC 50 Activity
row,Compound,IC50
1,"CNS(=O)(=O)C1CC[C@@H](Nc2ncc3c(Br)nn(-c4ccc(-c5nnc(C)s5)cc4)c3n2)C1 (stereo partly drawn) [(3R)-3-[[3-bromo-1-[4-(5-methyl-1,3,4-thiadiazol-2-yl)phenyl]pyrazolo[3,4-d]pyrimidin-6-yl]amino]-N-methyl-cyclopentanesulfonamide]",25 to 200 nM
2,"Cc1nnc(-c2ccc(-n3nc(Br)c4cnc(N[C@@H]5CCC(C)(C(=O)N6CCOCC6)C5)nc43)cc2)o1 (stereo partly drawn) [[(3R)-3-[[3-bromo-1-[4-(5-methyl-1,3,4-oxadiazol-2-yl)phenyl]pyrazolo[3,4-d]pyrimidin-6-yl]amino]-1-methyl-cyclopentyl]-morpholino-methanone]",25 to 200 nM
3,"Cc1nnc(-c2ccc(-n3nc(Br)c4cnc(N[C@@H]5CC[C@@H](P(C)(C)=O)C5)nc43)cc2CCS(C)(=O)=O)s1 [3-bromo-N-[(1R,3R)-3-dimethylphosphoryl-cyclopentyl]-1-[3-(2-methylsulfonylethyl)-4-(5-methyl-1,3,4-thiadiazol-2-yl)phenyl] pyrazolo[3,4-d]pyrimidin-6-amine]",25 to 200 nM
4,"CNC(=O)[C@]1(C)CC[C@@H](Nc2ncc3c(Br)nn(-c4ccc5c(c4)CCCN5)c3n2)C1 [(1R,3R)-3-[[3-bromo-1-(1,2,3,4-tetra-hydroquinolin-6-yl)pyrazolo[3,4-d]pyrimidin-6-yl]amino]-N,1-dimethyl-cyclopentanecarboxamide]",25 to 200 nM
5,"O=C(N[C@H]1CCOC1)[C@@H]1CC[C@@H](Nc2ncc3c(Br)nn(-c4ccc5ncccc5c4)c3n2)C1 [(1R,3R)-3-((3-bromo-1-(quinolin-6-yl)-1H-pyrazolo[3,4-d]pyrimidin-6-yl)amino)-N-((S)-tetrahydrofuran-3-yl)cyclopentane-1-carboxamide]",25 to 200 nM
6,"CNC(=O)[C@]1(C)CC[C@@H](Nc2ncc3c(Br)nn(-c4cncc(C#N)c4)c3n2)C1 [(1R,3R)-3-[[3-bromo-1-(5-cyano-3-pyridyl)pyrazolo[3,4-d]pyrimidin-6-yl]amino]-N,1-dimethyl-cyclopentane-carboxamide]",25 to 200 nM
7,CNC(=O)[C@]1(C)CC[C@@H](Nc2ncc3c(Br)nn(-c4ccc5c(=O)n(C)cnc5c4)c3n2)C1,25 to 200 nM
8,"CNC(=O)[C@]1(CC(F)F)CC[C@@H](Nc2ncc3c(Br)nn(-c4ccc5ncncc5c4)c3n2)C1 [(1R,3R)-3-[(3-bromo-1-quinazolin-6-yl-pyrazolo[3,4-d]pyrimidin-6-yl)amino]-1-(2,2-difluoroethyl)-N-methyl-cyclopentanecarboxamide]",25 to 200 nM
9,"O=C(Nc1cnn(C2CC2)c1)[C@@H]1CC[C@@H](Nc2ncc3c(Br)nn(-c4cc(F)c5ncccc5c4)c3n2)C1 [(1R,3R)-3-((3-bromo-1-(8-fluoroquinolin-6-yl)-1H-pyrazolo[3,4-d]pyrimidin-6-yl)amino)-N-(1-cyclopropyl-1H-pyrazol-4-yl)cyclopentane-1-carboxamide]",200 to 500 nM
10,"O=C(NC1CCOCC1)[C@@H]1CC[C@@H](Nc2ncc3c(Br)nn(-c4ccc5ncccc5c4)c3n2)C1 [(1R,3R)-3-((3-bromo-1-(quinolin-6-yl)-1H-pyrazolo[3,4-d]pyrimidin-6-yl)amino)-N-(tetrahydro-2H-pyran-4-yl)cyclopentane-1-carboxamide]",25 to 200 nM
11,"CNC(=O)C1(C)CC[C@@H](Nc2ncc3c(Br)nn(-c4ccc(-c5nc(C)no5)cc4)c3n2)C1 (stereo partly drawn) [(3R)-3-[[3-bromo-1-[4-(3-methyl-1,2,4-oxadiazol-5-yl)phenyl]pyrazolo[3,4-d]pyrimidin-6-yl]amino]-N,1-dimethyl-cyclopentanecarboxamide]",25 to 200 nM
12,"COCCNC(=O)[C@@H]1CC[C@@H](Nc2ncc3c(Br)nn(-c4ccc5nccnc5c4)c3n2)C1 [(1R,3R)-3-((3-bromo-1-(quinoxalin-6-yl)-1H-pyrazolo[3,4-d]pyrimidin-6-yl)amino)-N-(2-methoxyethyl)cyclopentane-1-carboxamide]",25 to 200 nM
13,"CNC(=O)C1(CCC#N)CC[C@@H](Nc2ncc3c(Br)nn(-c4ccc(-c5nnc(C)s5)c(CCC#N)c4)c3n2)C1 (stereo partly drawn) [(3R)-3-[[3-bromo-1-[3-(2-cyanoethyl)-4-(5-methyl-1,3,4-thiadiazol-2-yl)phenyl]pyrazolo[3,4-d]pyrimidin-6-yl]amino]-1-(2-cyanoethyl)-N-methyl-cyclopentanecarboxamide]",25 to 200 nM
14,"O=C1CN(C(=O)[C@@H]2CC[C@@H](Nc3ncc4c(Br)nn(-c5cc(F)c6ncccc6c5)c4n3)C2)CCN1 [4-((1R,3R)-3-((3-bromo-1-(8-fluoroquinolin-6-yl)-1H-pyrazolo[3,4-d]pyrimidin-6-yl)amino)cyclopentane-1-carbonyl)piperazin-2-one]",25 to 200 nM
15,"CCN1C(=O)COc2cc(-n3nc(Br)c4cnc(N[C@@H]5CC[C@@](C)(C(=O)NC)C5)nc43)ccc21 [(1R,3R)-3-[[3-bromo-1-(4-ethyl-3-oxo-1,4-benzoxazin-7-yl)pyrazolo[3,4-d]pyrimidin-6-yl]amino]-N,1-dimethyl-cyclopentane-carboxamide]",25 to 200 nM
16,"CNS(=O)(=O)[C@H]1CC[C@@H](Nc2ncc3c(Br)nn(-c4ccc5ncccc5c4)c3n2)C1 [(1S,3R)-3-((3-bromo-1-(quinolin-6-yl)-1H-pyrazolo[3,4-d]pyrimidin-6-yl)amino)-N-methylcyclopentane-1-sulfonamide]",500 to 1000 nM
17,"CN(C)S(=O)(=O)C1CC[C@@H](Nc2ncc3c(Br)nn(-c4cc(F)c5ncccc5c4)c3n2)C1 (stereo partly drawn) [(3R)-3-((3-bromo-1-(8-fluoroquinolin-6-yl)-1H-pyrazolo[3,4-d]pyrimidin-6-yl)amino)-N,N-dimethylcyclopentane-1-sulfonamide]",25 to 200 nM
18,"N#Cc1cc(-n2nc(Br)c3cnc(N[C@@H]4CC[C@@H](C(=O)NC[C@H]5COCCN5)C4)nc32)cc2cccnc12 [(1R,3R)-3-((3-bromo-1-(8-cyanoquinolin-6-yl)-1H-pyrazolo[3,4-d]pyrimidin-6-yl)amino)-N-(((S)-morpholin-3-yl)methyl)cyclopentane-1-carboxamide]",< 25 nM
19,CNC(=O)[C@]1(C)CC[C@@H](Nc2ncc3c(Br)nn(-c4cc(Br)cc(CN)c4)c3n2)C1,25 to 200 nM

# Continued, values first:
row,IC50,Compound
1,< 25 nM,"CNC(=O)[C@]1(C)CC[C@@H](Nc2ncc3c(Br)nn(-c4cc(OCCOC)c5ncccc5c4)c3n2)C1 [(1R,3R)-3-[[3-bromo-1-[8-(2-methoxy-ethoxy)-6-quinolyl]pyrazolo[3,4-d]pyrimidin-6-yl]amino]-N,1-dimethyl-cyclopentanecarboxamide]"
2,25 to 200 nM,"CNC(=O)[C@]1(C)CC[C@@H](Nc2ncc3c(Br)nn(-c4cc(C5CNC5)c5ncccc5c4)c3n2)C1 [(1R,3R)-3-[[1-[8-(azetidin-3-yl)-6-quinolyl]-3-bromo-pyrazolo[3,4-d]pyrimidin-6-yl]amino]-N,1-dimethyl-cyclopentane-carboxamide]"
3,25 to 200 nM,"CNC(=O)C1(C)CC[C@@H](Nc2ncc3c(Br)nn(-c4ccc5nc(OC)ccc5c4)c3n2)C1 (stereo partly drawn) [(3R)-3-((3-bromo-1-(2-methoxyquinolin-6-yl)-1H-pyrazolo[3,4-d]pyrimidin-6-yl)amino)-N,1-dimethylcyclopentane-1-carboxamide]"
4,< 25 nM,"CNC(=O)[C@]1(CCCOC)CC[C@@H](Nc2ncc3c(Br)nn(-c4cc(F)c5ncccc5c4)c3n2)C1 [(1S,3R)-3-[[3-bromo-1-(8-fluoro-6-quinolyl)pyrazolo[3,4-d]pyrimidin-6-yl]amino]-1-(3-methoxypropyl)-N-methyl-cyclopentane-carboxamide]"
5,25 to 200 nM,"CNC(=O)[C@]1(CC(F)F)CC[C@@H](Nc2ncc3c(Br)nn(-c4cc(CCO)c5ncccc5c4)c3n2)C1 [(1R,3R)-3-[[3-bromo-1-[8-(2-hydroxyethyl)-6-quinolyl]pyrazolo[3,4-d]pyrimidin-6-yl]amino]-1-(2,2-difluoroethyl)-N-methyl-cyclo-pentanecarboxamide]"
6,25 to 200 nM,"CNC(=O)[C@]1(C)CC[C@@H](Nc2ncc3c(Br)nn(-c4cc(N5CCNCC5=O)c5ncccc5c4)c3n2)C1 [(1R,3R)-3-[[3-bromo-1-[8-(2-oxopiperazin-1-yl)-6-quinolyl]pyrazolo[3,4-d]pyrimidin-6-yl]amino]-N,1-dimethyl-cyclopentane-carboxamide]"
7,25 to 200 nM,"CNC(=O)[C@]1(C)CC[C@@H](Nc2ncc3c(Br)nn(-c4ccc(-c5cncn5C)cc4)c3n2)C1 [(1R,3R)-3-[[3-bromo-1-[4-(3-methylimidazol-4-yl)phenyl]pyrazolo[3,4-d]pyrimidin-6-yl]amino]-N,1-dimethyl-cyclopentane-carboxamide]"
8,25 to 200 nM,"CNC(=O)C1(C)CC[C@@H](Nc2ncc3c(Br)nn(-c4cc(Cl)cc(CO)c4)c3n2)C1 (stereo partly drawn) [(3R)-3-[[3-bromo-1-[3-chloro-5-(hydroxy-methyl)phenyl]pyrazolo[3,4-d]pyrimidin-6-yl]amino]-N,1-dimethyl-cyclopentane-carboxamide]"
9,25 to 200 nM,"COCCNC(=O)[C@@H]1CC[C@@H](Nc2ncc3c(Br)nn(-c4cc(C(F)F)c5ncccc5c4)c3n2)C1 [(1R,3R)-3-((3-bromo-1-(8-(difluoromethyl)quinolin-6-yl)-1H-pyrazolo[3,4-d]pyrimidin-6-yl)amino)-N-(2-methoxyethyl)cyclopentane-1-carboxamide]"
